Source: PubChem BioAssay (NCI)
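Each compound was tested at five concentrations against cells in 96-well plates for 48 hours. TGI: total growth inhibition.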

How the values were obtained:
Assay in all cases: NCI-60 cell line screen, 48 h
SK-MEL-2 melanoma = tested on: SK-MEL-2 melanoma
NCI-H460 lung = tested on: NCI-H460 lung
BT-549 breast = tested on: BT-549 breast
OVCAR-5 ovarian = tested on: OVCAR-5 ovarian
NCI-H23 lung = tested on: NCI-H23 lung
MOLT-4 leukemia = tested on: MOLT-4 leukemia
SK-OV-3 ovarian = tested on: SK-OV-3 ovarian
UACC-257 melanoma = tested on: UACC-257 melanoma
TK-10 renal = tested on: TK-10 renal
SW-620 colon = tested on: SW-620 colon
MDA-N = tested on: MDA-N
SF-268 CNS = tested on: SF-268 CNS
HCT-15 colon = tested on: HCT-15 colon
SNB-75 CNS = tested on: SNB-75 CNS
HS 578T breast = tested on: HS 578T breast
SK-MEL-5 melanoma = tested on: SK-MEL-5 melanoma
HOP-92 NSCLC = tested on: HOP-92 NSCLC
IGROV1 ovarian = tested on: IGROV1 ovarian
T-47D breast = tested on: T-47D breast
NCI-H522 lung = tested on: NCI-H522 lung
K-562 leukemia = tested on: K-562 leukemia
CAKI-1 renal = tested on: CAKI-1 renal
HCT-116 colon = tested on: HCT-116 colon
LOX IMVI melanoma = tested on: LOX IMVI melanoma
SN12C renal = tested on: SN12C renal
SF-295 CNS = tested on: SF-295 CNS
KM12 colon = tested on: KM12 colon
HOP-62 NSCLC = tested on: HOP-62 NSCLC
RPMI-8226 leukemia = tested on: RPMI-8226 leukemia
MDA-MB-435 = tested on: MDA-MB-435
ACHN renal = tested on: ACHN renal
MALME-3M melanoma = tested on: MALME-3M melanoma
PC-3 prostate = tested on: PC-3 prostate
OVCAR-3 ovarian = tested on: OVCAR-3 ovarian
MCF7 breast = tested on: MCF7 breast
U251 CNS = tested on: U251 CNS
A498 renal = tested on: A498 renal
UO-31 renal = tested on: UO-31 renal
NCI/ADR-RES ovarian = tested on: NCI/ADR-RES ovarian
HT29 colon = tested on: HT29 colon
SNB-19 CNS = tested on: SNB-19 CNS
M14 melanoma = tested on: M14 melanoma
MDA-MB-231 breast = tested on: MDA-MB-231 breast
CCRF-CEM leukemia = tested on: CCRF-CEM leukemia
COLO 205 colon = tested on: COLO 205 colon
EKVX NSCLC = tested on: EKVX NSCLC
NCI-H226 lung = tested on: NCI-H226 lung
SR leukemia = tested on: SR leukemia
786-0 renal = tested on: 786-0 renal
UACC-62 melanoma = tested on: UACC-62 melanoma
HCC-2998 colon = tested on: HCC-2998 colon
OVCAR-8 ovarian = tested on: OVCAR-8 ovarian
SK-MEL-28 melanoma = tested on: SK-MEL-28 melanoma
DU-145 prostate = tested on: DU-145 prostate
RXF 393 renal = tested on: RXF 393 renal
SF-539 CNS = tested on: SF-539 CNS
OVCAR-4 ovarian = tested on: OVCAR-4 ovarian
HL-60(TB) leukemia = tested on: HL-60(TB) leukemia
A549 NSCLC = tested on: A549 NSCLC

Compound: COC(=O)[C@@H]1[C@@H]2NC(=S)N[C@@]1(C)Oc1ccccc12
- TGI (SK-MEL-2 melanoma): > 100 µM
- TGI (NCI-H460 lung): > 100 µM
- TGI (BT-549 breast): > 100 µM
- TGI (OVCAR-5 ovarian): > 100 µM
- TGI (NCI-H23 lung): > 100 µM
- TGI (MOLT-4 leukemia): > 100 µM
- TGI (SK-OV-3 ovarian): > 100 µM
- TGI (UACC-257 melanoma): > 100 µM
- TGI (TK-10 renal): > 100 µM
- TGI (SW-620 colon): > 100 µM
- TGI (MDA-N): 88.1 µM
- TGI (SF-268 CNS): > 100 µM
- TGI (HCT-15 colon): > 100 µM
- TGI (SNB-75 CNS): > 100 µM
- TGI (HS 578T breast): > 100 µM
- TGI (SK-MEL-5 melanoma): > 100 µM
- TGI (HOP-92 NSCLC): > 100 µM
- TGI (IGROV1 ovarian): > 100 µM
- TGI (T-47D breast): > 100 µM
- TGI (NCI-H522 lung): > 100 µM
- TGI (K-562 leukemia): > 100 µM
- TGI (CAKI-1 renal): > 100 µM
- TGI (HCT-116 colon): > 100 µM
- TGI (LOX IMVI melanoma): > 100 µM
- TGI (SN12C renal): > 100 µM
- TGI (SF-295 CNS): > 100 µM
- TGI (KM12 colon): > 100 µM
- TGI (HOP-62 NSCLC): > 100 µM
- TGI (RPMI-8226 leukemia): > 100 µM
- TGI (MDA-MB-435): 33.5 µM
- TGI (ACHN renal): > 100 µM
- TGI (MALME-3M melanoma): > 100 µM
- TGI (PC-3 prostate): > 100 µM
- TGI (OVCAR-3 ovarian): > 100 µM
- TGI (MCF7 breast): > 100 µM
- TGI (U251 CNS): > 100 µM
- TGI (A498 renal): > 100 µM
- TGI (UO-31 renal): > 100 µM
- TGI (NCI/ADR-RES ovarian): > 100 µM
- TGI (HT29 colon): > 100 µM
- TGI (SNB-19 CNS): > 100 µM
- TGI (M14 melanoma): > 100 µM
- TGI (MDA-MB-231 breast): > 100 µM
- TGI (CCRF-CEM leukemia): > 100 µM
- TGI (COLO 205 colon): > 100 µM
- TGI (EKVX NSCLC): > 100 µM
- TGI (NCI-H226 lung): > 100 µM
- TGI (SR leukemia): > 100 µM
- TGI (786-0 renal): > 100 µM
- TGI (UACC-62 melanoma): > 100 µM
- TGI (HCC-2998 colon): > 100 µM
- TGI (OVCAR-8 ovarian): > 100 µM
- TGI (SK-MEL-28 melanoma): > 100 µM
- TGI (DU-145 prostate): > 100 µM
- TGI (RXF 393 renal): > 100 µM
- TGI (SF-539 CNS): > 100 µM
- TGI (OVCAR-4 ovarian): > 100 µM

Compound: CCN(/C=C1/C(=O)C(c2ccccc2)N(c2ccccc2)C1=O)CC (stereo not given)
- TGI (SK-MEL-2 melanoma): > 10 µM
- TGI (NCI-H460 lung): > 10 µM
- TGI (BT-549 breast): > 10 µM
- TGI (OVCAR-5 ovarian): > 10 µM
- TGI (HL-60(TB) leukemia): > 10 µM
- TGI (NCI-H23 lung): > 10 µM
- TGI (MOLT-4 leukemia): > 10 µM
- TGI (SK-OV-3 ovarian): > 10 µM
- TGI (UACC-257 melanoma): > 10 µM
- TGI (TK-10 renal): > 10 µM
- TGI (SW-620 colon): > 10 µM
- TGI (MDA-N): > 10 µM
- TGI (SF-268 CNS): > 10 µM
- TGI (HCT-15 colon): > 10 µM
- TGI (SNB-75 CNS): > 10 µM
- TGI (HS 578T breast): > 10 µM
- TGI (SK-MEL-5 melanoma): > 10 µM
- TGI (A549 NSCLC): > 10 µM
- TGI (IGROV1 ovarian): > 10 µM
- TGI (T-47D breast): > 10 µM
- TGI (NCI-H522 lung): > 10 µM
- TGI (K-562 leukemia): > 10 µM
- TGI (CAKI-1 renal): > 10 µM
- TGI (HCT-116 colon): > 10 µM
- TGI (LOX IMVI melanoma): > 10 µM
- TGI (SN12C renal): > 10 µM
- TGI (SF-295 CNS): > 10 µM
- TGI (KM12 colon): > 10 µM
- TGI (HOP-62 NSCLC): > 10 µM
- TGI (RPMI-8226 leukemia): > 10 µM
- TGI (MDA-MB-435): > 10 µM
- TGI (ACHN renal): > 10 µM
- TGI (MALME-3M melanoma): > 10 µM
- TGI (PC-3 prostate): > 10 µM
- TGI (OVCAR-3 ovarian): > 10 µM
- TGI (MCF7 breast): > 10 µM
- TGI (U251 CNS): > 10 µM
- TGI (A498 renal): > 10 µM
- TGI (UO-31 renal): > 10 µM
- TGI (NCI/ADR-RES ovarian): > 10 µM
- TGI (HT29 colon): > 10 µM
- TGI (SNB-19 CNS): > 10 µM
- TGI (M14 melanoma): > 10 µM
- TGI (MDA-MB-231 breast): > 10 µM
- TGI (CCRF-CEM leukemia): > 10 µM
- TGI (COLO 205 colon): > 10 µM
- TGI (EKVX NSCLC): > 10 µM
- TGI (NCI-H226 lung): > 10 µM
- TGI (SR leukemia): > 10 µM
- TGI (786-0 renal): > 10 µM
- TGI (UACC-62 melanoma): > 10 µM
- TGI (HCC-2998 colon): > 10 µM
- TGI (OVCAR-8 ovarian): > 10 µM
- TGI (SK-MEL-28 melanoma): > 10 µM
- TGI (DU-145 prostate): > 10 µM
- TGI (RXF 393 renal): > 10 µM
- TGI (SF-539 CNS): > 10 µM
- TGI (OVCAR-4 ovarian): > 10 µM
